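Five compound concentrations were applied to cells in 96-well plates for 48 hours; endpoints were derived by simple linear interpolation of the resulting dose-response curve. Definition used: TGI = concentration required for complete inhibition of growth.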
Columns and labels:
Assay in all cases: growth of human tumour cells (NCI), 48 h
SF-268 CNS = test system: SF-268 CNS
DU-145 prostate = test system: DU-145 prostate
HCC-2998 colon = test system: HCC-2998 colon
NCI-H226 lung = test system: NCI-H226 lung
MCF7 breast = test system: MCF7 breast
M14 melanoma = test system: M14 melanoma
HOP-92 NSCLC = test system: HOP-92 NSCLC
HCT-15 colon = test system: HCT-15 colon
CAKI-1 renal = test system: CAKI-1 renal
NCI-H522 lung = test system: NCI-H522 lung
SNB-19 CNS = test system: SNB-19 CNS
OVCAR-5 ovarian = test system: OVCAR-5 ovarian
EKVX NSCLC = test system: EKVX NSCLC
HL-60(TB) leukemia = test system: HL-60(TB) leukemia
RPMI-8226 leukemia = test system: RPMI-8226 leukemia
BT-549 breast = test system: BT-549 breast
SNB-75 CNS = test system: SNB-75 CNS
UO-31 renal = test system: UO-31 renal

Row | SMILES | TGI (SF-268 CNS) [µM] | TGI (DU-145 prostate) [µM] | TGI (HCC-2998 colon) [µM] | TGI (NCI-H226 lung) [µM] | TGI (MCF7 breast) [µM] | TGI (M14 melanoma) [µM] | TGI (HOP-92 NSCLC) [µM] | TGI (HCT-15 colon) [µM] | TGI (CAKI-1 renal) [µM] | TGI (NCI-H522 lung) [µM] | TGI (SNB-19 CNS) [µM] | TGI (OVCAR-5 ovarian) [µM] | TGI (EKVX NSCLC) [µM] | TGI (HL-60(TB) leukemia) [µM] | TGI (RPMI-8226 leukemia) [µM] | TGI (BT-549 breast) [µM] | TGI (SNB-75 CNS) [µM] | TGI (UO-31 renal) [µM]
1 | CC(=O)OCC1OC(NC(=S)Nn2c(=O)[nH]c3ccccc3c2=O)C(OC(C)=O)C(OC(C)=O)C1OC(C)=O (configuration not stated) | > 100 | > 100 | > 100 | > 100 | > 100 | > 100 | > 100 | > 100 | > 100 | > 100 | > 100 | > 100 | > 100 | > 100 | > 100 | > 100 | > 100 | > 100
2 | O=C1c2ccccc2-c2nnc(-c3ccc([N+](=O)[O-])cc3)cc21 | > 10 | > 10 | > 10 | > 10 | > 10 | > 10 | > 10 | > 10 | > 10 | > 10 | > 10 | > 10 | > 10 | > 10 | > 10 | > 10 | > 10 | > 10
3 | C=CCN1C(=O)/C(=C/c2ccc(Cl)cc2)N=C1SC/C=C/C | > 100 | > 100 | > 100 | > 100 | 84.3 | > 100 | 84.2 | > 100 | > 100 | > 100 | > 100 | > 100 | > 100 | 57.5 | 47.3 | > 100 | > 100 | > 100
4 | COC(=O)c1ccccc1/C=C1\Cc2c(C)c3c(c(C)c2C1=O)CCC3 | > 100 | > 100 | > 100 | > 100 | > 100 | > 100 | > 100 | > 100 | > 100 | > 100 | > 100 | > 100 | > 100 | > 100 | > 100 | > 100 | > 100 | > 100
